Source: patent US20140316005A1, “COMPOSITIONS FOR IMPROVED OXIDATIVE STATUS IN COMPANION ANIMALS” (HILL'S PET NUTRITION, INC., priority 2003, published 2014)
Like-named read-outs stand apart in the source and are kept apart here.

Conditions: for Total gain / Weekly gain / Final wt.: kittens; for Total gain / Weekly gain: 10 weeks post-weaning; for Final wt.: end of 10-week trial
Description: Dietary methionine was fed to growing kittens at three levels (0.77, 1.14, and 1.50%) to determine the effect of methionine on growth performance and antioxidant activity. Kittens were fed meat based, canned diets for 10 weeks post-weaning.

[1] = Week 5, dietary methionine 0.77 wt %
[2] = Week 5, dietary methionine 1.14 wt %
[3] = Week 5, dietary methionine 1.50 wt %
[4] = Week 10, dietary methionine 0.77 wt %
[5] = Week 10, dietary methionine 1.14 wt %
[6] = Week 10, dietary methionine 1.50 wt %
[7] = week 5, 1.50 wt % dietary methionine vs 0.77 wt %
[8] = week 10, 1.50 wt % dietary methionine vs 0.77 wt %

CSCC[C@H](N)C(=O)O [methionine]
Weekly weight gain, in words (1.14 wt % and 1.50 wt % dietary methionine compared to 0.77 wt %): increased
ORAC (oxygen radical absorptive capacity) [1]: 2521.84
Taurine (whole blood) [1]: 575.63
Vitamin E (serum) [1]: 15.63
ORAC (oxygen radical absorptive capacity) [2]: 2694.51
Taurine (whole blood) [2]: 630.00
Vitamin E (serum) [2]: 19.86
ORAC (oxygen radical absorptive capacity) [3]: 3164.36
Taurine (whole blood) [3]: 783.71
Vitamin E (serum) [3]: 30.19
ORAC (oxygen radical absorptive capacity) [4]: 2972.53
Taurine (whole blood) [4]: 625.75
Vitamin E (serum) [4]: 20.74
ORAC (oxygen radical absorptive capacity) [5]: 2503.38
Taurine (whole blood) [5]: 616.13
Vitamin E (serum) [5]: 24.24
ORAC (oxygen radical absorptive capacity) [6]: 3013.31
Taurine (whole blood) [6]: 784.57
Vitamin E (serum) [6]: 25.13
Total gain (dietary methionine 0.77 wt %): 950.00 g
Weekly gain (dietary methionine 0.77 wt %): 95.00 g
Final wt. (dietary methionine 0.77 wt %): 1518.75 g
Total gain (dietary methionine 1.14 wt %): 1075.00 g
Weekly gain (dietary methionine 1.14 wt %): 107.50 g
Final wt. (dietary methionine 1.14 wt %): 1612.50 g
Total gain (dietary methionine 1.50 wt %): 1221.43 g
Weekly gain (dietary methionine 1.50 wt %): 122.14 g
Final wt. (dietary methionine 1.50 wt %): 1792.86 g
Blood taurine concentrations, in words [7]: greater
Oxygen radical absorptive capacity (ORAC), in words [7]: greater
Vitamin E concentrations, in words [7]: greater
Oxygen radical absorptive capacity, in words (week 10): not increased
Serum vitamin E concentrations, in words [8]: greater
Whole blood taurine concentrations, in words [8]: greater
